Reference: patent US20020062499A1, “Methods for translational repression of gene expression in plants” (priority 2000, published 2002)

Assays:
[1] = system: aroA:CP4 EPSPS reporter gene expression; assay: MS2 CP translational repression of CP4 EPSPS reporter, corn protoplast transient assay (ELISA); assay type: cell-based; conditions: corn protoplasts
Description: Corn protoplasts are prepared from etiolated leaves of antiseptically grown seedlings. Six to eight grams of leaf tissue is harvested and put in the enzyme mix (1% cellulase, 0.1% macerozyme, 0.6 M mannitol, 10 mM MES (pH =5.7), 1 mM CaCl2, 1 mM MgCl2, and 0. 1% BSA) in 100×25 mm petri plates. The leaf digestion is done for 135 minutes, swirling on a shaker at 50 rpm at 26° C. under light (10-25 mico-einsteins) in a growth chamber (Percival Scientific Inc., Boone, Iowa). Protoplasts are screened through a 190 μm sterile tissue mesh into a petri plate. The protoplasts are spun down in a table top centrifuge at 800 rpm (˜200 g) for 8 minutes. The supernatant is removed carefully by pipetting. The protoplasts are resuspended in 10 mL per tube of the 0.6 M mannitol rinse. They are spun down a second time using the same conditions and re-suspended in 10 mL of the electroporation buffer (0.6 M mannitol, 4 mM MES, 1.0 mM β-mercaptoethanol, 25 mM KCL, pH =5.7) and put on ice. The number of protoplasts is determined by making counts on a hemacytometer and a final density of 4.5×10^6 per mL is obtained with the proper volume of electroporation buffer. For electroporation, 0.75 mL of protoplasts is added to each cuvette followed by the addition of plasmid DNA in a volume of 50 μL or less. Samples are electroporated at 125 […] and 260 volts using a Bio-Rad Gene Pulser Electroporater (Bio-Rad CA) and incubated in Murishige-Skoog medium (MS) +0.6 M mannitol in the light at 26° C. for 18-22 hours before analysis. Protoplasts are harvested by spinning down at 800-1000 rpm in a table top centrifuge and lysed by resuspending in 500 μL extraction buffer (IX phosphate buffered saline [PBS] (Roche Boehringer Mannheim #1666789, Nutley, N.J.) 0.2% BSA, 0.5% Tween 20, pH 7.4) and vortexed for five seconds. Samples are spun at 3,000 rpm for 5 min in a table top centrifuge and the supernatant is saved to a fresh tube and put on ice ready for analysis.
The total amount of DNA in each sample is equalized by using as a carrier an appropriate amount of an empty vector plasmid DNA pMON999 (P-CaMV.35S/T-AGRTU.nos). With the aroA:CP4 EPSPS gene as the reporter, the GUS activity encoded by a separate plasmid is used as an internal control to normalize the expression. Similarly, the aroA:CP4 EPSPS gene expression is used for normalization when the Ec.uidA (GUS) gene is used as the reporter.
The aroA:CP4 EPSPS expression is quantitated by ELISA. A crude protoplast extract containing lmg total protein is added to goat anti-CP4 EPSPS IgG coated wells of a 96-well microtiter plate for immunoreaction. Antibodies specific to CP4 EPSPS are produced in goats by immunization of three goats with recombinant SDS-PAGE purified CP4 EPSPS from recombinant E. coli. […]

GUS expression = assay: MS2 translation repression system in transgenic Arabidopsis (F1 segregants of crosses); assay type: in vivo; conditions: Arabidopsis plants containing the MS2 coat protein
Description: Arabidopsis plants are transformed by the Agrobacterium infiltration method as described (Bechtold et al., Methods Mol. Biol. 82:259-66 (1992)). DNA gel blots (Southern blot analysis), RNA gel blots (northern blot analysis) and protein immunoblots (western blot analysis) are carried out using standard protocols (Sambrook et al., Molecular Cloning: A laboratory manual, 2nd ed. Cold Spring Harbor Laboratory Press, Cold Spring Harbor, N.Y., (1989)).
V1 plants positive for GUS and MS2 coat protein are identified using a GUS assay (Jefferson et al., Plant Mol. Bio. Rep. 5:387-405 (1987)) and western blot analysis, respectively. Positive plants with a low copy number are identified by Southern analysis then cross pollinated. F1 plants from the cross are then subjected to PCR analysis to identify segregants that contained both transgenes as well as siblings that contained only the uidA gene. GUS expression levels are determined by MUG assays (Jefferson et al., Plant Mol. Bio. Rep. 5:387-405, (1987)) in both groups of plants for three separate crosses (25×1, 25×12, and 14×23).

[2] = system: CP4 EPSPS reporter gene expression; assay: Yeast RPL32 translational repression of CP4 EPSPS reporter in corn protoplasts; assay type: cell-based; conditions: CP4 EPSPS reporter with RPL32 operator
Description: (§1) Corn protoplasts are prepared from etiolated leaves of antiseptically grown seedlings. Six to eight grams of leaf tissue is harvested and put in the enzyme mix (1% cellulase, 0.1% macerozyme, 0.6 M mannitol, 10 mM MES (pH =5.7), 1 mM CaCl2, 1 mM MgCl2, and 0. 1% BSA) in 100×25 mm petri plates. The leaf digestion is done for 135 minutes, swirling on a shaker at 50 rpm at 26° C. under light (10-25 mico-einsteins) in a growth chamber (Percival Scientific Inc., Boone, Iowa). Protoplasts are screened through a 190 μm sterile tissue mesh into a petri plate. The protoplasts are spun down in a table top centrifuge at 800 rpm (˜200 g) for 8 minutes. The supernatant is removed carefully by pipetting. The protoplasts are resuspended in 10 mL per tube of the 0.6 M mannitol rinse. […] The number of protoplasts is determined by making counts on a hemacytometer and a final density of 4.5×10^6 per mL is obtained with the proper volume of electroporation buffer. […] Samples are spun at 3,000 rpm for 5 min in a table top centrifuge and the supernatant is saved to a fresh tube and put on ice ready for analysis.
For CP4 EPSPS ELISA assay, a 96-well Nunc-Immuno MaxiSorb plate is coated with 100 μL of purified monoclonal anti-CP4 EPSPS IgG antibody (1 ng/μL) in coating buffer (15 mM Na2CO3, 35 mM NaHCO3, pH 9.6). […] The plate is read on a Spectra Max 340 (Molecular Devices, Sunnyvail, Calif. 94089) at 450 nm. […]

[3] = system: Ec.uidA reporter gene with the MS2 operator in the 5′UTR; assay: MS2 CP translational repression of Ec.uidA (GUS) reporter, corn protoplast transient assay; assay type: cell-based; conditions: pMON42178/pMON42176 and pMON42180/pMON42177; corn protoplasts
Description: as §1, with “analysis. […]” for “analysis.”
A fluorometry assay for GUS activity is performed as described (Jefferson, Plant Mol. Bio. Rep. 5:387-405 (1987)). GUS activity is measured with the fluorometric substrate 4-methylumbelliferryl-β-glucuronide (4-MUG) on a Fmax fluorimeter (Molecular Devices Corp., Sunnyvale, Calif.). […]

[4] = 4:1 DNA molar ratio of the coat protein gene to the reporter
[5] = MS2 coat protein gene co-expressed

MS2 coat protein: coat protein of the MS2 RNA bacteriophage, RNA-binding translational repressor
expression of the aroA:CP4 EPSPS reporter gene, % of the control [1, 4]: 0.4%
fold repression of aroA:CP4 EPSPS reporter [1, 4]: 270 fold
expression of the aroA:CP4 EPSPS reporter gene, % of the control [1, 5]: 14%
fold repression of aroA:CP4 EPSPS reporter [1, 5]: about 7 fold
GUS activity, % of the control (GUS expression): 6.9%
fold repression of GUS activity (GUS expression): 14 fold

RPL32: yeast (Saccharomyces cerevisiae) ribosomal protein RPL32, an RNA-binding protein
fold reduction of translation [2]: up to 2.3 fold
translation, % of the control [2]: ≥ 43%

B1: MS2 CP:en: plant expression enhanced version of the MS2 CP gene (SEQ ID NO:3) (nucleic acid)
DNA: ATGGCCTCCAACTTCACCCAGTTCGTGCTCGTGGACAACGGCGGCACCGGCGACGTGACCGTCGCCCCAAGCAACTTCGCCAACGGGGTCGCCGAGTGGATCAGCTCCAACTCGCGCTCCCAGGCCTACAAGGTGACCTGCAGCGTGCGCCAGTCCTCCGCGCAGAACCGCAAGTACACCATCAAGGTCGAGGTGCCGAAGGTGGCCACCCAGACCGTCGGCGGCGTGGAGCTGCCAGTGGCCGCCTGGCGCTCGTACCTCAACATGGAGCTGACCATCCCAATCTTCGCCACGAACTCCGACTGCGAGCTGATCGTGAAGGCCATGCAAGGCCTCCTGAAGGACGGCAACCCGATCCCCTCCGCCATCGCCGCCAACTCCGGCATCTACTAA
modifications: synthetic plant MS2 CP gene
increase in efficiency of translational repression compared to the respective native gene construct, expressed as decrease in GUS activity [3]: 74-80%
